The values that follow come from US7759459B2, “Fluorescent assays for protein kinases” (Albert Einstein College of Medicine of Yeshiva University, priority 2003, dated 2010).

Numbered stars: 1 amine (or outer) side, 2 acyl side, 3 side chain; on linkers, the order of the positions; unused ones are H or OH. Square brackets hold non-standard residues; d marks the D form. Peptide text beside a SMILES is read from it. * marks the point of attachment. X2 = O=C(O)CN(CC(=O)O)c1ccc(-c2c3cc(F)c(=O)cc-3oc3cc(O)c(F)cc23)cc1OCC(=O)*; X1 = O=C([C@H](CO)N(c1ccc([N+](=O)[O-])c2nonc12)[*:1])[*:2]; Acridine9carbonyl = O=C(c1c2ccccc2nc2ccccc12)*; Dansyl = CN(C)c1cccc2c(S(=O)(=O)*)cccc12; Cysteamide = C(CS[*:3])N[*:1]; Sar = CNCC(=O)O

What all share (format): biochemical
Test [1] addresses T1, PKCα (Homo sapiens, UniProt P17252). Nature of the test: Fluorescent PKC assay (spectrofluorimetry). To be noted: PKCα-catalyzed phosphorylation; spectrofluorimetry. How it is done:
(§1) Fluorescent PKC assay-Fluorescence assays were performed in triplicate at 30° C. and initiated by addition of ATP to a 100 μL cuvette containing a 50 μL solution of PKC and peptide substrate 2. Final conditions: 62.5 mM HEPES pH 7.4, 3 mM MgCl2, 0.3 mM CaCl2, 0.1 mM EGTA, 1 mM DTT, 0.5 μg/mL phosphatidylserine, 0.1 μg/mL diacylglycerol, 1 mM ATP, and 13 nM PKC. After the addition of ATP, the solution was gently mixed and the time-dependent change in fluorescent intensity (excitation: 520 nm, emission: […]) continuously monitored with a Photon Technology QM-1 spectrofluorimeter.

For test [2], the target named is T1, PKCα. Nature of the test: Protein kinase C assay (Example II). To be noted: for % Change Fluorescence: upon PKC-catalyzed phosphorylation; for Km / Vmax: PKC-catalyzed phosphorylation. How it is done:
Protein kinase C assay. The kinase-catalyzed reaction was performed in triplicate at 30° C. and initiated by addition of ATP to a solution of PKCα and fluorophore-appended peptide substrate 23 (except in the case of the library, where the assays were performed in a 96 well plate using a fluorescence plate reader). Final conditions: 62.5 mM HEPES, 3 mM MgCl2, 0.3 mM CaCl2, 0.1 mM EGTA, 1 mM DTT, 0.5 μg/mL phosphatidylserine, 0.1 μg/mL diacylglycerol, 1 mM ATP, and 13 nM PKCα (pH 7.4). After the addition of ATP, the solution was gently mixed and the time-dependent change in fluorescent intensity (λexcitation=[…]; λemission=521 nm) continuously monitored with a Photon Technology QM-1 spectrofluorimeter.

In test [3] the test system is protein kinase C. Nature of the test: Screen of fluorophore-peptide library for fluorescence change in the presence of PKC and ATP. To be noted: Table 3 library. How it is done:
as §1
The peptide H2N-Ser-Phe-Arg-Arg-Arg-Arg-Lys-amide (1) (SEQ ID NO:2) was prepared using an Fmoc-based protocol, spatially segregated, and the free N-terminal amine subsequently modified with an array of fluorophore-containing carboxylic acids (I), aromatic aldehydes (II), and electron deficient aryl halides (III). […] This spatially segregated fluorophore-substituted peptide-based library contains a total of 415 distinct chemical entities (Table 3) and was screened for changes in fluorescence intensity in the presence of PKC and ATP under activating conditions. […] The obvious explanation is that phosphorylation of the peptide fails to induce the desired change in photophysical properties of the appended fluorophore. However, it is also possible that introduction of fluorophores, at various sites along the peptide framework, interferes with PKC-catalyzed phosphorylation. The latter possibility is unlikely, particularly for simple N-monosubstituted peptides, since PKC will phosphorylate peptides containing a wide variety of structurally diverse functionality attached at and/or near the phosphorylatable serine moiety.^24 Nevertheless, a few representative members of the library were evaluated in depth (Table 1). […]. One explanation for the poor fluorescence response of these particular peptides to PKC/ATP could be that these peptides serve as poor PKC substrates. This possibility was addressed by obtaining the PKCα-catalyzed Km and Vmax values using the [γ-^32P]ATP radioactive method.^25 As is clear from Table 1, all five peptides are reasonably effective substrates for PKCα.
Table 3. Structures of 415 compounds tested. The % change observed in fluorescence intensity upon phosphorylation of the compound by protein kinase C is shown in the right column. […] The compound labeled as compound 21 in Table 3 is the same as compound 2 in Example I, which is also shown in Scheme 2.

Consider `CN(C)c1cccc2c(S(=O)(=O)N[C@@H](CO)C(=O)N[C@@H](Cc3ccccc3)C(=O)N[C@@H](CCCNC(=N)N)C(=O)N[C@@H](CCCNC(=N)N)C(=O)N[C@@H](CCCNC(=N)N)C(=O)N[C@@H](CCCNC(=N)N)C(=O)N[C@@H](CCCCN)C(N)=O)cccc12` (Dansyl-SFRRRRK-NH2), for which the “Fluorescence enhancement upon phosphorylation (% Change)” value in test [1] was 20%.
With `CN(CC(=O)N[C@@H](CO)C(=O)N[C@@H](Cc1ccccc1)C(=O)N[C@@H](CCCNC(=N)N)C(=O)N[C@@H](CCCNC(=N)N)C(=O)N[C@@H](CCCNC(=N)N)C(=O)N[C@@H](CCCNC(=N)N)C(=O)NCCS)C(=O)COc1cc(-c2c3cc(F)c(=O)cc-3oc3cc(O)c(F)cc23)ccc1N(CC(=O)O)CC(=O)O` [N-Me glycine] (X2-[Sar]SFRRRR-Cysteamide), in test [2], the “% Change Fluorescence” value stood at 264%.
As to `CCCCCCCCCC(=O)NCCCCC(CNS(=O)(=O)c1cccc2c(N(C)C)cccc12)NC(O)C(=O)NC(C(=O)NC(NC(=N)N)C(=O)NC(NC(=N)N)C(=O)NC(NC(=N)N)C(=O)NC(NC(=N)N)C(=O)NC(N)C(N)=O)c1ccccc1` (stereo not shown) [Compound 82], the “% change observed in fluorescence intensity upon phosphorylation of the compound by protein kinase C” value (“% change observed” for short) in test [3] is reported as less than 10%.
Still for that read-out and setting: the figure for `N=C(N)NC(NC(=O)C(NC(=N)N)NC(=O)C(NC(=N)N)NC(=O)C(NC(=N)N)NC(=O)C(NC(=O)C(O)N=C1N=c2c(c3ccccc3c3ccccc23)=N1)c1ccccc1)C(=O)NC(N)C(N)=O` (stereo not shown) [Compound 77] is less than 10%; for `N=C(N)NC(NC(=O)C(NC(=N)N)NC(=O)C(NC(=N)N)NC(=O)C(NC(=N)N)NC(=O)C(NC(=O)C(O)NC(=N)Nc1ccc(NOO)c2nonc12)c1ccccc1)C(=O)NC(N)C(N)=O` (stereo not shown) [Compound 87] it is less than 10%; for `N=C(N)NNC1=c2cc3ccccc3cc2=CC1C(CO)C(=O)NC(C(=O)NC(NC(=N)N)C(=O)NC(NC(=N)N)C(=O)NC(NC(=N)N)C(=O)NC(NC(=N)N)C(=O)NC(N)C(N)=O)c1ccccc1` (stereo not shown) [Compound 92] it is less than 10%.
With `N=C(N)NC(NC(=O)C(NC(=N)N)NC(=O)C(NC(=N)N)NC(=O)C(NC(=N)N)NC(=O)C(NC(=O)C(O)Nc1ccc(N)cc1)c1ccccc1)C(=O)NC(N)C(N)=O` (stereo not shown) [Compound 76], in test [3], the “% change observed” value is less than 10%.
Take `CCCCCC(=O)NCCCCC(CNS(=O)(=O)c1cccc2c(N(C)C)cccc12)NC(O)C(=O)NC(C(=O)NC(NC(=N)N)C(=O)NC(NC(=N)N)C(=O)NC(NC(=N)N)C(=O)NC(NC(=N)N)C(=O)NC(N)C(N)=O)c1ccccc1` (stereo not shown) [Compound 81]: the “% change observed” value in test [3] is given as less than 10%.
Take `N=C(N)NC(NC(=O)C(NC(=N)N)NC(=O)C(NC(=N)N)NC(=O)C(NC(=N)N)NC(=O)C(NC(=O)C(O)NC(=O)C(CO)C1C=c2cc3ccccc3cc2=C1SC(=N)N)c1ccccc1)C(=O)NC(N)C(N)=O` (stereo not shown) [Compound 91]: the “% change observed” value in test [3] is reported as less than 10%.
Consider `N=C(N)NCCC[C@H](NC(=O)[C@H](CCCNC(=N)N)NC(=O)[C@H](CCCNC(=N)N)NC(=O)[C@H](CCCNC(=N)N)NC(=O)[C@H](Cc1ccccc1)NC(=O)[C@H](CO)NC(=O)c1c2ccccc2nc2ccccc12)C(=O)N[C@@H](CCCCN)C(N)=O` (Acridine9carbonyl-SFRRRRK-NH2), for which the “Fluorescence enhancement upon phosphorylation (% Change)” value in test [1] worked out at 20%.
As for `N=C(N)NC(NC(=O)C(NC(=N)N)NC(=O)C(NC(=N)N)NC(=O)C(NC(=N)N)NC(=O)C(NC(=O)C(O)/N=C/c1cc([N+](=O)[O-])cc([N+](=O)[O-])c1O)c1ccccc1)C(=O)NC(N)C(N)=O` (stereo not shown) [Compound 55], in test [3], the “% change observed” value is less than 10%.
With `N=C(N)NC(NC(=O)C(NC(=N)N)NC(=O)C(NC(=N)N)NC(=O)C(NC(=N)N)NC(=O)C(NC(=O)c1ccc2c3c4c(ccc13)C=CCC4=CC2)NC(=O)C(O)Nc1ccc([N+](=O)[O-])c2nonc12)C(N)=O` (stereo not shown) [Compound 73], in test [3], the “% change observed” value is reported as less than 10%.
Consider `N=C(N)NCCC[C@H](NC(=O)[C@H](CCCNC(=N)N)NC(=O)[C@H](CCCNC(=N)N)NC(=O)[C@H](CCCNC(=N)N)NC(=O)[C@H](Cc1ccccc1)NC(=O)[C@H](CO)Nc1ccc([N+](=O)[O-])c2nonc12)C(=O)N[C@@H](CCCCN)C(N)=O` (H-[X1]FRRRRK-NH2), for which the “Fluorescence enhancement upon phosphorylation (% Change)” value in test [1] is on record as 150%.
Take `N=C(N)NC(NC(=O)C(NC(=N)N)NC(=O)C(NC(=N)N)NC(=O)C(NC(=N)N)NC(=O)C(NC(=O)C(O)NC(=O)C(CO)C1C=c2cc3ccccc3cc2=C1NN)c1ccccc1)C(=O)NC(N)C(N)=O` (stereo not shown) [Compound 88]: the “% change observed” value in test [3] is recorded as less than 10%.
Regarding `N#CC1=c2cc3ccccc3cc2=CC1C(=N)NC(O)C(=O)NC(C(=O)NC(NC(=N)N)C(=O)NC(NC(=N)N)C(=O)NC(NC(=N)N)C(=O)NC(NC(=N)N)C(=O)NC(N)C(N)=O)c1ccccc1` (stereo not shown) [Compound 86], the “% change observed” value in test [3] was less than 10%.
In the case of `CNCC(=O)O` [N-methyl glycine], in test [2], the “% Change Fluorescence” value is given as 264%.
The term Km denotes the concentration of substrate that gives half-maximal velocity. In general, Vmax refers to the rate approached at saturating substrate. Turning to L-proline, in test [2], the Km came out at 63 µM, the Vmax worked out at 1.9 µmol/min/mg and the “% Change Fluorescence” value is given as 150%.
`N#CC1=c2cc3ccccc3cc2=CC1C(CO)C(=O)NC(O)C(=O)NC(C(=O)NC(NC(=N)N)C(=O)NC(NC(=N)N)C(=O)NC(NC(=N)N)C(=O)NC(NC(=N)N)C(=O)NC(N)C(N)=O)c1ccccc1` (stereo not shown) [Compound 90]: the “% change observed” value in test [3] is given as less than 10%.
For `N=C(N)NC1=c2cc3ccccc3cc2=CC1C(CO)C(=O)NC(O)C(=O)NC(C(=O)NC(NC(=N)N)C(=O)NC(NC(=N)N)C(=O)NC(NC(=N)N)C(=O)NC(NC(=N)N)C(=O)NC(N)C(N)=O)c1ccccc1` (stereo not shown) [Compound 89], in test [3], the “% change observed” value is reported as less than 10%.
Take `CN(C)c1cccc2c(S(=O)(=O)NC(=N)NC(O)C(=O)NC(C(=O)NC(NC(=N)N)C(=O)NC(NC(=N)N)C(=O)NC(NC(=N)N)C(=O)NC(NC(=N)N)C(=O)NC(N)C(N)=O)c3ccccc3)cccc12` (stereo not shown) [Compound 85]: the “% change observed” value in test [3] is on record as less than 10%.
As for D-proline, in test [2], the Km was 23.5 µM, the Vmax was 1.0 µmol/min/mg and the “% Change Fluorescence” value stood at 156%.
Turning to `N=C(N)NC(NC(=O)C(NC(=N)N)NC(=O)C(NC(=N)N)NC(=O)C(NC(=N)N)NC(=O)C(NC(=O)C(O)N1C=C(c2ccccc2)C(=O)C1(O)c1ccccc1C(=O)O)c1ccccc1)C(=O)NC(N)C(N)=O` (stereo not shown) [Compound 78], the “% change observed” value in test [3] is less than 10%.
As for `N=C(N)NC(NC(=O)C(NC(=N)N)NC(=O)C(NC(=N)N)NC(=O)C(NC(=N)N)NC(=O)C(NC(=O)Cc1cc(=O)oc2cc(O)ccc12)NC(=O)C(O)Nc1ccc([N+](=O)[O-])c2nonc12)C(N)=O` (stereo not shown) [Compound 75], the “% change observed” value in test [3] is listed as less than 10%.
On to `COCCN(CCOC)C1=c2cc3ccccc3cc2=CC1C(CO)C(=O)NC(C(=O)NC(NC(=N)N)C(=O)NC(NC(=N)N)C(=O)NC(NC(=N)N)C(=O)NC(NC(=N)N)C(=O)NC(N)C(N)=O)c1ccccc1` (stereo not shown) [Compound 93], for which, in test [3], the “% change observed” value is given as less than 10%.
